# Assay results from US20200354327A1, “COMPOUND HAVING STAT3 INHIBITORY ACTIVITY AND USE THEREOF” (CYTUS H&B CO., LTD., priority 2017, published 2020).
# Experiments:
# STAT92E = test: Drosophila cell luciferase assay (10XSTAT92E-luciferase reporter); format: cell-based; settings: compared with DMSO-treated group, concentration-dependent
# Protocol: Drosophila cells (S2-NP, 24×3) used in the experiment were cultured as previously described (Kim B H, et al. Mol Cancer Ther. 7, 2672-2680 (2008)). S2-NP (Drosophila Schneider cell) cells were Drosophila-derived macrophage-like cells and were cultured in Schneider's medium. 24×3 cells were cell lines stably expressed by inserting 10XSTAT92E-luciferase and PolIII-Renilla luciferase-labeled plasmid DNA as reporter constructs into S2-NP cells and were cultured in a medium prepared by adding […] of geneticin to the same medium as that for S2-NP. S2-NP cells in which unpaired (upd) or HOPT^Tum-l as a ligand was expressed and 24×3 cells constructed with reporter constructs were mixed at a constant ratio and cultured for 24 hours in the presence of a compound, the expression level of STAT92E was measured using a luminometer, and the inhibition effect was compared with that of the DMSO-treated group.
# U87-MG cells [1] = test: Cell proliferation assay, U87-MG; format: cell-based, human; settings: by time period, versus DMSO
# Protocol: (§1) Cell proliferation assay was performed as previously described (Won C, et al. Anticancer Res. 30, 481-488 (2010)). In order to analyze the cell proliferation rate, U87-MG and MDA-MB-231 cell lines were dispensed into a 6-well culture dish, then treated with DMSO and ODZ10117 the next day, and stained with crystal violet after 0 h, 24 h, 48 h, and 72 h, and the number of live cells was calculated using a hemocytometer.
# MDA-MB-231 cells [2] = test: Cell proliferation assay, MDA-MB-231; format: cell-based, human; settings: MDA-MB-231, by time period, versus DMSO
# Protocol: as §1
# caspase-3 and PARP = test: Western blot of caspase-3 and PARP; format: cell-based, human
# Protocol: (§2) Western blot analysis was performed (Jung J E, et al. FASEB J. 19, 1296-1298 (2005)). The cells were washed two times with PBS and suspended in the lysate (50 mM Tris-HCl, pH 7.4, 350 mM NaCl, 1% Triton X-100, 0.5% Nonidet P-40, 10% glycerol, 0.1% SDS, 1 mM EDTA, 1 mM EGTA, 1 mM Na3VO4, 1 mM PMSF, protease and phosphorylation inhibitor) and the cell membrane and nuclear membrane were crushed to lyse the cells. The insoluble protein fraction was removed by centrifugation, and the supernatant was mixed with SDS electrophoresis buffer and electrophoresis (SDS-PAGE) was performed to detect the protein with the desired antibody and to confirm the protein expression level.
# U87-MG cells [3] = test: Wound healing assay, U87-MG; format: cell-based, human; settings: 24 hours
# Protocol: (§3) Wound healing assay was performed as previously described (Jung J E, et al. FASEB J. 19, 1296-1298 (2005)). The respective cells were dispensed into a 12-well plate (U87-MG: 5×10^5 cells/ml; MDA-MB-231: 3×10^5 cells/ml) and cultured until the cells proliferated 90% or more. Cells scraped off from the plate with the tip of the pipette were washed two times with PBS. After 24 hours, the proliferation (invasion) of cells at the part from which the cells were had been removed was observed under a microscope, and images were taken.
# MDA-MB-231 cells [4] = test: Wound healing assay, MDA-MB-231; format: cell-based, human; settings: MDA-MB-231, 24 hours
# Protocol: as §3
# Twist = test: Expression of Twist in U87-MG and MDA-MB-231 cells; format: cell-based, human; settings: U87-MG and MDA-MB-231, 24 hours
# Protocol: RNA isolation and real-time polymerase chain reaction were performed as described previously (Jung J E, et al. FASEB J. 19, 1296-1298 (2005)). Primer specific for human-derived Bcl-XL, Bcl-2, Twist, and GADPH genes were mixed with QuantiFast SYBR Green PCR master mix, and each gene was amplified using the Applied Biosystems 7300 real-time PCR system to compare the expression level.
# U87-MG cells [5] = test: Human tumor cell xenograft, U87-MG; format: in vivo, BALB/c nude mice; settings: injected directly into the tumor, versus DMSO
# Protocol: (§4) Male Nude Mouse (BALB/cAnNCrj-nu/nu) was purchased from Charles River Japan Inc. (Shin-Yokohama, Japan). The mouse was bred in a clean room in which the temperature and humidity were constantly controlled. The breeding process was carried out according to the method described in the manual for maintenance of laboratory animals in Seoul National University. U87-MG cells or MDA-MB-231 cells were diluted with PBS, suspended in 100 μl of Matrigel at 25% concentration, and injected into the back of mouse and bred for 6 to 10 weeks. Human tumor growth was measured every other day using a vernier caliper from 2 weeks after cell injection. With regard to the degree of inhibition of human tumor cell formation, 40 μM of ODZ10117 was directly injected into the human tumor on days 0, 3, and 5 from week 4 of tumor cell injection. On the 7th day, the mouse was sacrificed to separate the tumor, and the tumor cell inhibitory efficacy of the drug was measured by being compared with that of the control group treated with 1% DMSO.
# MDA-MB-231 cells [6] = test: Human tumor cell xenograft, MDA-MB-231; format: in vivo, BALB/c nude mice; settings: MDA-MB-231 xenograft, injected directly into the tumor, versus DMSO
# Protocol: as §4
# STAT3 [7] = molecular target: T1, STAT3 (Homo sapiens, UniProt P40763); test: STAT3 activity in various human cancer cell lines with excessively activated or IL-6-induced STAT3; format: cell-based; parameters: endogenous in cells; host or cells: L540, HDLM-2, U87-MG, MDA-MB-231, further human glioblastoma and breast cancer lines
# T1 sequence (P40763 whole entry): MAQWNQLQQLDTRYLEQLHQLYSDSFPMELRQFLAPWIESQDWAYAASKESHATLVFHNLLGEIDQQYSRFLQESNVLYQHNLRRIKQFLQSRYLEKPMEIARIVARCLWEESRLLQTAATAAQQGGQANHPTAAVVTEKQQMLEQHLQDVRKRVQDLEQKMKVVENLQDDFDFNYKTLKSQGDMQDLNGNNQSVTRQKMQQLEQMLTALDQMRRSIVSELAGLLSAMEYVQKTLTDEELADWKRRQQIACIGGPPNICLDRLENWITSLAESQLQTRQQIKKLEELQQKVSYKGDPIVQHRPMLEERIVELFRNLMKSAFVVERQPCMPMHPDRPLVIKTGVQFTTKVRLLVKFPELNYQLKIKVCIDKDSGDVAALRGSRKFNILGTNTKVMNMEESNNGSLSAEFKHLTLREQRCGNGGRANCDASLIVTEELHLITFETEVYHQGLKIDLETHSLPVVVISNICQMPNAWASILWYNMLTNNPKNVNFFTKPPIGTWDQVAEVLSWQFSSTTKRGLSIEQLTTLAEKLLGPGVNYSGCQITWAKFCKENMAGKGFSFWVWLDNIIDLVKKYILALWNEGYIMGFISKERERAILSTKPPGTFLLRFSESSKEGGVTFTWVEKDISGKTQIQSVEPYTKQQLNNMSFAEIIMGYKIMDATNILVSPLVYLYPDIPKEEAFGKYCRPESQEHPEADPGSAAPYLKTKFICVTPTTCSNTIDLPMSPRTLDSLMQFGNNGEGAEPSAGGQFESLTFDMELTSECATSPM
# Protocol: (§5) The human cancer cell lines used in the experiment were U87-MG (human malignant glioblastoma) and MDA-MB-231 (human malignant breast cancer) cell lines, and various kinds of human-derived blood and solid cancer cells including these human cancer cell lines were cultured as previously described (Jung J E, et al. FASEB J. 19, 1296-1298 (2005)). The human Hodgkin lymphoma cancer cell lines L540 and HLDM-2 used in the experiment were obtained from the German Collection of Microorganism and Cell Cultures (DSMZ, Germany) and cultured using RPMI 1640 medium containing 20% FBS in a 5% CO2 incubator at a temperature of 37° C.
# as §2
# STAT3 [8] = molecular target: T1, STAT3; test: Western blot in U87-MG and MDA-MB-231 cells; format: cell-based; parameters: endogenous in cells; host or cells: L540, HDLM-2, U87-MG, MDA-MB-231, further human glioblastoma and breast cancer lines
# Protocol: as §5, §2
structure (smiles),measurement,setting,value
"Clc1ccc(OCc2noc(C(Cl)(Cl)Cl)n2)c(Cl)c1 [ODZ10117, 3-(2,4-dichloro-phenoxymethyl)-5-trichloromethyl-[1,2,4]oxadiazole]",promoter activity of STAT92E,STAT92E,significantly decreased the promoter activity of STAT92E
same,cell proliferation,U87-MG cells [1],effectively inhibited the proliferation of the two cell lines
same,cell proliferation,MDA-MB-231 cells [2],effectively inhibited the proliferation of the two cell lines
same,amount of fragmented caspase-3 and PARP proteins,caspase-3 and PARP,significantly increased the amount of fragmented caspase-3 and PARP proteins
same,cell migration,U87-MG cells [3],significantly inhibited the migration of these cells
same,cell migration,MDA-MB-231 cells [4],significantly inhibited the migration of these cells
same,expression of Twist,Twist,significantly decreased
same,tumor growth,U87-MG cells [5],significantly inhibited tumor growth
same,tumor growth,MDA-MB-231 cells [6],significantly inhibited tumor growth
same,activity of STAT3 induced by IL-6,STAT3 [7]; IL-6 induced,efficiently inhibited the activity of STAT3 induced by IL-6
same,activity of STAT3,STAT3 [7]; various human cancer cell lines in which STAT3 was excessively activated,inhibited the activity of STAT3 in all kinds of cell lines used in the experiment
same,"activity of STAT3 induced by IL-6, compared with known inhibitors",STAT3 [7]; versus NSC628869 and NSC74859,more efficiently inhibited the activity of STAT3 induced by IL-6 than NSC628869 and NSC74859
same,phosphorylation of tyrosine 705 and serine 727 residues of STAT3,STAT3 [8],significantly inhibited phosphorylation of tyrosine 705 and serine 727 residues of STAT3
